Where “and” joins values, the source holds several entries; their conditions need not be identical. Identical values can stand only once.
Assays:
NR1-1b/NR2B NMDA subtype = biological target: T1, NR1-1b/NR2B NMDA subtype (Homo sapiens, UniProt Q05586+Q13224); test: cell-based
T1 construct: expressed in transfected cells; host or cells: oocytes

CF #1 Mice = system: CF #1 Mice; set-up: TD50: unit not given beside the values; conditions: mouse, in vivo
[1] = system: Frings audiogenic seizure-susceptible mice; conditions: mouse, in vivo
[2] = system: young (<2 weeks old) mice; assay type: in vivo; conditions: mouse, in vivo
[3] = system: young (<2 weeks old) mice; assay type: in vivo; conditions: mouse, in vivo; remark: listed apart in the source
[4] = system: young (<2 weeks old) mice; assay type: in vivo; conditions: mouse, in vivo; remark: listed apart in the source
CF No. 1 mice = conditions: mouse, in vivo

T1 sequence (Q13224 27-1484, other chains not shown): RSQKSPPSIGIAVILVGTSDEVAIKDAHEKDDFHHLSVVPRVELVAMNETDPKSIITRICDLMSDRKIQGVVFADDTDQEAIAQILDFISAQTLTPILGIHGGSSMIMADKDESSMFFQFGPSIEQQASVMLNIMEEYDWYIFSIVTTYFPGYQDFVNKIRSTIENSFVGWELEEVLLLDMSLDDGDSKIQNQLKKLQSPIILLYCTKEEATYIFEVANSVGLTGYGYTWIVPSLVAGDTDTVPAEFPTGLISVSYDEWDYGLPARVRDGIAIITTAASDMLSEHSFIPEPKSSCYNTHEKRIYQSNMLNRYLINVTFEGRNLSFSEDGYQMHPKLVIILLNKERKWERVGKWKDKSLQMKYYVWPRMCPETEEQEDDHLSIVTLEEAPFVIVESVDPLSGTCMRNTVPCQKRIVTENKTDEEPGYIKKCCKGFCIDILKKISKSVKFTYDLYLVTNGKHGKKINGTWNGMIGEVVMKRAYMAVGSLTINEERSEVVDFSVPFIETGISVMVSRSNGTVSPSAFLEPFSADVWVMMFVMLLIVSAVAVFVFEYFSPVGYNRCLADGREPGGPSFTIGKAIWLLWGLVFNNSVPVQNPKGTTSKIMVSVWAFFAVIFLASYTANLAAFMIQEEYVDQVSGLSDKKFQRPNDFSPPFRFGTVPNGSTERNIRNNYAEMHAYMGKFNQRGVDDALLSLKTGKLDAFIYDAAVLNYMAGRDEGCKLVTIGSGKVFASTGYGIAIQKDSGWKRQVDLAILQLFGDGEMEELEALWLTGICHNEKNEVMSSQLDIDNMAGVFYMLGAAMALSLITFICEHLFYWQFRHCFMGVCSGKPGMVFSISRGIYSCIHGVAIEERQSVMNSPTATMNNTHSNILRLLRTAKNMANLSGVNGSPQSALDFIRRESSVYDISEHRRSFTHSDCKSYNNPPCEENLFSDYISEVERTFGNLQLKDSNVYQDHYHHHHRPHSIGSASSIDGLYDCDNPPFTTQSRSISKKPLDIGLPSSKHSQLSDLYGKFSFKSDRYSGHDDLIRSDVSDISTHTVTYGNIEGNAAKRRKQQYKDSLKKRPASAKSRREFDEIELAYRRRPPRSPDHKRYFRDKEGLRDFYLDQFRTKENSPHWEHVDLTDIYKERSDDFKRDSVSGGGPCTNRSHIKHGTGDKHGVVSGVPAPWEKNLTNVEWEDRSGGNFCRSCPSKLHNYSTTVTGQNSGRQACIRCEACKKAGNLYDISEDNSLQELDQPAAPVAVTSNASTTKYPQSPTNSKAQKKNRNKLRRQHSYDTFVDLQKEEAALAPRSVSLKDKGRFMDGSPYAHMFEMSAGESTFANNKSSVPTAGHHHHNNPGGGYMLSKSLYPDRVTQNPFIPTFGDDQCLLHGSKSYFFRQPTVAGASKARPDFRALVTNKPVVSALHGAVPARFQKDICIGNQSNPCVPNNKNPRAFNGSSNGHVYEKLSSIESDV

| Compound | Sleepy Test, positive mice/tested [2] | Righting Reflex, mice that lost reflex/tested [3] | Catalepsy Test, positive mice/tested [4] | anticonvulsant activity (CF No. 1 mice) | further results |
| --- | --- | --- | --- | --- | --- |
| CC[C@H](C)[C@H](NC(=O)[C@H](CC(N)=O)NC(=O)[C@H](CC(C(=O)O)C(=O)O)NC(=O)[C@H](CCCNC(=N)N)NC(=O)[C@H](C)NC(=O)[C@H](CC(C)C)NC(=O)[C@H](CC(C(=O)O)C(=O)O)NC(=O)[C@H](C)NC(=O)[C@H](C)NC(=O)[C@H](CCSC)NC(=O)[C@H](CCCCN)NC(=O)[C@H](C)NC(=O)[C@@H](NC(=O)[C@H](CC(C(=O)O)C(=O)O)NC(=O)[C@H](CC(C(=O)O)C(=O)O)NC(=O)[C@H](CCC(=O)O)NC(=O)CN)C(C)C)C(=O)N[C@@H](C)C(=O)N[C@@H](CCCCN)C(=O)NCC(=O)N[C@H]1CSSC[C@@H](C(=O)N[C@@H](Cc2ccc(O)cc2)C(=O)N2CCC[C@H]2C(=O)O)NC(=O)[C@H](CC(N)=O)NC(=O)[C@H](C(C)C)NC(=O)[C@H](CCCCN)NC1=O [Con R, Conantokin R] |  |  |  |  | Ki (NR1-1b/NR2B NMDA subtype): 140 nM; inhibition at 3 µM (NR1-1b/NR2B NMDA subtype; read-out: inhibition of the current produced in response to glutamate and glycine): ~95%; P.I. (TD50/ED50) (CF #1 Mice): 3.6; TD50 (CF #1 Mice): ~ 0.300; P.I. (TD50/ED50) [1]: 17; Protective Index, PI (TD50/ED50) [1]: 18; TD50 [1]: 0.228; protective index relative to that of valproic acid [1]: at least eight times better |
| Conantokin Oc [Con Oc] | 2/3 and 0/3 | 0/3 | 0/3 |  |  |
| Conantokin Ca2 [Con Ca2] |  |  |  | anticonvulsant activity |  |
| Conantokin Gm [Con Gm] |  |  |  | anticonvulsant activity |  |
| Conantokin L [Con L] | 4/4 | 2/4 and 3/4 | 4/4 and 3/4 | anticonvulsant activity |  |
| Conantokin Qu [Con Qu] |  |  |  | anticonvulsant activity |  |
